Literature values, collected in patent US6846809B2, “PEI: DNA vector formulations for in vitro and in vivo gene delivery” (Board of Regents, The University of Texas System, priority 2000, dated 2005).
Structures can show the parent of a compound that is named as a salt. Where two headings read alike, the source gives them in different places. *1 amine or outer side, *2 acyl side, *3 side chain or, on linkers, in order; H or OH if unused. Where a SMILES comes first, the peptide text is derived from it. Bridges are numbered along the chain shown (N, C = ends). Roman numbers before positions name the chains, in order. [ ]: non-standard residue; d: D form. Actinocin(9to1) = Cc1c2oc3c(C)ccc(C(=O)[*:1])c3nc-2c(C(=O)[*:2])c(N)c1=O; NMeV = CN[C@H](C(=O)O)C(C)C; Sar = CNCC(=O)O

Key:
multiple myeloma = details: oral administration
[1] = mouse, in vivo
[2] = system: Hodgkin's Disease, testicular tumors, squamous cell cancers
certain animal tumors = details: in vivo
[3] = system: chronic myelogenous leukemia; details: previously untreated

Compound: Cc1c2oc3c(C)ccc(C(=O)N[C@@H]4C(=O)N[C@H](C(C)C)C(=O)N5CCC[C@H]5C(=O)N(C)CC(=O)N(C)[C@@H](C(C)C)C(=O)O[C@@H]4C)c3nc-2c(C(=O)N[C@@H]2C(=O)N[C@H](C(C)C)C(=O)N3CCC[C@H]3C(=O)N(C)CC(=O)N(C)[C@@H](C(C)C)C(=O)O[C@@H]2C)c(N)c1=O [Actinomycin D] (I: T[dV]P[Sar][NMeV] / II: T[dV]P[Sar][NMeV]; ester I:1-I:C, II:1-II:C; linker I:N-II:N via Actinocin(9to1))
- blood-brain barrier passage (human, in vivo): does not pass the blood-brain barrier
- fraction of dose excreted in the urine (human, in vivo): 10%
- fraction of dose excreted intact into the bile (human, in vivo): Half of the dose
- half-life (human, in vivo): about 36 hours

Compound: N[C@@H](Cc1ccc(N(CCCl)CCCl)cc1)C(=O)O [Melphalan, 4-[bis(2-chloroethyl)amino]-L-phenylalanine]
- patients showing a favorable response (multiple myeloma): about one third to one half

Compound: O.O=P1(N(CCCl)CCCl)NCCCO1 (centres unmarked) [Cyclophosphamide, 2H-1,3,2-Oxazaphosphorin-2-amine, N,N-bis(2-chloroethyl)tetrahydro-, 2-oxide, monohydrate]
- stability in the gastrointestinal tract (human, in vivo): stable in the gastrointestinal tract
- local tolerance (oral and parental routes): does not cause local vesication, necrosis, phlebitis or even pain

Compound: COc1cccc2c1C(=O)c1c(O)c3c(c(O)c1C2=O)C[C@@](O)(C(=O)CO)C[C@@H]3O[C@H]1C[C@H](N)[C@H](O)[C@H](C)O1 [Doxorubicin, 5,12-Naphthacenedione, (8s-cis)-10-[(3-amino-2,3,6--trideoxy-a-L-lyxo-hexopyranosyl)oxy]-7,8,9,10-tetrahydro-6,8,11-trihydroxy-8-(hydroxyacetyl)-1-methoxy-hydrochloride]
- elimination half-life (human, in vivo): about 30 hours
- fraction of dose excreted in the urine (human, in vivo): a few percent

Compound: Bleomycin
- concentrations in hematopoietic tissue / bone marrow [1]: low concentrations
- concentrations in skin, lungs, kidneys, peritoneum, and lymphatics [1]: high concentrations
- time to improvement ([2]; Hodgkin's Disease and testicular tumors): ≤ 2 weeks
- time to improvement ([2]; squamous cell cancers): ≤ 3 weeks
- fraction of dose excreted in the urine (human, in vivo): 60-70%

Compound: COc1cccc2c1C(=O)c1c(O)c3c(c(O)c1C2=O)C[C@@](O)(C(C)=O)C[C@@H]3O[C@H]1C[C@H](N)[C@H](O)[C@H](C)O1 [Daunorubicin, 5,12-Naphthacenedione, (8S-cis)-8-acetyl-10-[(3-amino-2,3,6-trideoxy-a-L-lyxo-hexanopyranosyl)oxy]-7,8,9,10-tetrahydro-6,8,11-trihydroxy-10-methoxy-, hydrochloride]
- elimination half-life (human, in vivo): about 19 hours
- fraction secreted into the bile (human, in vivo): about 40%
- half-life of distribution (human, in vivo): 45 min
- oral / gastrointestinal absorption (human, in vivo): poor

Compound: N[C@H](Cc1ccc(N(CCCl)CCCl)cc1)C(=O)O [medphalan]
- activity compared with the L-isomer (certain animal tumors): less active against certain animal tumors

Compound: CC[C@]1(O)C[C@@H]2CN(CCc3c([nH]c4ccccc34)[C@@](C(=O)OC)(c3cc4c(cc3OC)N(C)[C@H]3[C@@](O)(C(=O)OC)[C@H](OC(C)=O)[C@]5(CC)C=CCN6CC[C@]43[C@@H]65)C2)C1 [Vinblastine]
- fraction of dose recovered in the feces (after biliary excretion): about 10%
- distribution into blood cells (human, in vivo): extensively concentrated in platelets
- fraction of dose excreted in the urine (human, in vivo): Approximately 15%

Compound: CO[C@@]12[C@H](COC(N)=O)C3=C(C(=O)C(C)=C(N)C3=O)N1C[C@@H]1N[C@@H]12 [Mitomycin]
- time required to reduce the serum concentration by about 50% (30 mg bolus injection): 17 min
- fraction of dose excreted in the urine (human, in vivo): Approximately 10%

Compound: O=C(O)CCCc1ccc(N(CCCl)CCCl)cc1 [Chlorambucil, 4-[bis(2-chlorethyl)amino] benzenebutanoic acid]
- oral / gastrointestinal absorption (human, in vivo): rapidly and completely absorbed
- terminal half-life (plasma): about 1.5 hours
- time to peak plasma levels (single oral doses of about 0.6 mg/kg to about 1.2 mg/kg): within one hour

Compound: CS(=O)(=O)OCCCCOS(C)(=O)=O [Busulfan, 1,4-butanediol dimethanesulfonate]
- adults obtaining hematologic remission [3]: Approximately 90%

Compound: O=NN(CCCl)C(=O)NC1CCCCC1 [Lomustine, 1-(2-chloro-ethyl)-3-cyclohexyl-1 nitrosourea]
- serum half-life of the metabolites (human, in vivo): 16 hours to about 2 days
- radioactivity excreted as degradation products within 24 hours (oral radioactive drug, about 30 mg/m^2 to 100 mg/m^2): about half

Compound: CC[C@]1(O)C[C@H]2CN(CCc3c([nH]c4ccccc34)[C@@](C(=O)OC)(c3cc4c(cc3OC)N(C=O)[C@H]3[C@@](O)(C(=O)OC)[C@H](OC(C)=O)[C@]5(CC)C=CCN6CC[C@]43[C@@H]65)C2)C1 [Vincristine]
- distribution into blood cells (human, in vivo): extensively concentrated in platelets

Compound: COc1cccc2c1C(=O)c1c(O)c3c(c(O)c1C2=O)C[C@@](O)([C@H](C)O)C[C@@H]3O[C@H]1C[C@H](N)[C@H](O)[C@H](C)O1 [daunorubicinol]
- half-life (human, in vivo): about 27 hours
